# According to patent publication US7312344B2, “Dimeric isoflavones” (Novogen Research Pty Limited, priority 2001, dated 2007):
# Like-named read-outs stand apart in the source and are kept apart here.
# Tests used:
# breast (MCF-7) = experiment: Cell cytotoxicity assay (MTT), MCF-7; type: cell-based, human
# Description: (§1) The anticancer potential of the tetraphenolic dimer (Structure 3) and the tetraacetoxy dimer (Structure 2) was assessed using a panel of human tumour cell lines, including glioma (C6), prostate (PC3), breast (MCF-7), soft tissue (Kym-1) and lung (NCI-H23 and NCI-H460). The cell cytotoxicity assay was conducted as per the method of Alley et al., 1988. Cell lines are exposed to varying concentrations of test compound for a fixed time. At the conclusion of the assay, the viability of the cell population is determined using the hydrogen acceptor reagent 3-(4,5-dimethylthiazol-2-yl)-2,5 diphenyltetrazolium bromide (MTT). The concentration of compound required to inhibit 50% of cell growth in comparison to a control (IC50) is an indicator of effectiveness of the compound. (i.e. the lower the concentration of compound required to inhibit 50% of normal cell proliferation, the more efficacious).
# lung (NCI-H23) = experiment: Cell cytotoxicity assay (MTT), NCI-H23; type: cell-based, human; details: read-out: Cell Line IC50 NCI-H23
# Description: as §1
# prostate (PC3) = experiment: Cell cytotoxicity assay (MTT), PC3; type: cell-based, human; details: read-out: Cell Line IC50 PC3
# Description: as §1
# [1] = molecular target: T1, recombinant human estrogen receptors-alpha (ER-α) (Homo sapiens, UniProt P03372); experiment: Estrogen receptor competitive binding assay (fluorescence polarization kit), ER-α
# T1 construct: purchased
# T1 sequence (P03372 1-595): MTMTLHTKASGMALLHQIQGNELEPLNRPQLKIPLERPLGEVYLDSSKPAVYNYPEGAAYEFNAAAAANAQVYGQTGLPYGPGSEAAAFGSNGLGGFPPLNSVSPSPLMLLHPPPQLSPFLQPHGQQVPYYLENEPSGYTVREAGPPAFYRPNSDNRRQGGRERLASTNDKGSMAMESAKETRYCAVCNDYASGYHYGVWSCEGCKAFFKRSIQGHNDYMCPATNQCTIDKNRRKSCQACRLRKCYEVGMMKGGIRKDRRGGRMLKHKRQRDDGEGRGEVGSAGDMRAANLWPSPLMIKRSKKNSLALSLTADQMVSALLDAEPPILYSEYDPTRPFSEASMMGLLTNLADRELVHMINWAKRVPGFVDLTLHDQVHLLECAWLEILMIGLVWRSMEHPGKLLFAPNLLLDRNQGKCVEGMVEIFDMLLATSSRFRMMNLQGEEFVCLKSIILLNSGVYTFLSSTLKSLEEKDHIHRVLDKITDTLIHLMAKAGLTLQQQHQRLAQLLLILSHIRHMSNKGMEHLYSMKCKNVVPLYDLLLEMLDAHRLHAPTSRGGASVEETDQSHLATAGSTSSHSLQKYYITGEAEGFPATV
# Description: (§2) The ability of the tetraphenolic dimer (Structure 3) and tetraacetoxy dimer (Structure 2) to interact with estrogen receptor alpha and beta was determined using a commercially available estrogen receptor binding kit. This kit employs a competitive binding assay to determine the relative binding affinity of test compounds for recombinant human estrogen receptors-alpha (ER-α) and beta (ER-β). […] The complex is then added to decreasing concentrations of competitor test compounds. The shift in polarization in the presence of test compound is used to determine the relative affinity of test compounds for the estrogen receptor.
# [2] = molecular target: T2, recombinant human estrogen receptor beta (ER-β) (Homo sapiens, UniProt Q92731); experiment: Estrogen receptor competitive binding assay (fluorescence polarization kit), ER-β
# T2 construct: purchased
# T2 sequence (Q92731 whole entry): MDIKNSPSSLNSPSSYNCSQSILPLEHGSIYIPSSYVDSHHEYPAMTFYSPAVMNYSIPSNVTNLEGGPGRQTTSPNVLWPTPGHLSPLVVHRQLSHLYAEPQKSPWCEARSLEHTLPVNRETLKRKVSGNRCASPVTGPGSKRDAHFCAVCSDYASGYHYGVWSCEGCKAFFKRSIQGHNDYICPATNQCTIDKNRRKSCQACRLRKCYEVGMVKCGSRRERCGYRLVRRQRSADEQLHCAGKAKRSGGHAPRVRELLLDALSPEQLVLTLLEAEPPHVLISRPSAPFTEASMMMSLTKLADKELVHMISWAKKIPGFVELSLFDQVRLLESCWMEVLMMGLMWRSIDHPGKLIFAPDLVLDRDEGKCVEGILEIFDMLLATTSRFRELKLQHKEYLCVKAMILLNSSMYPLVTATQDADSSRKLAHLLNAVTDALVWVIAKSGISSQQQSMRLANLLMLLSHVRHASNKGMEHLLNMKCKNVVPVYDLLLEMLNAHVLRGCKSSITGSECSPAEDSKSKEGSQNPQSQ
# Description: as §2
# glioma (C6) = experiment: Cell cytotoxicity assay (MTT), C6 glioma; type: cell-based, human; details: Rattus norvegicus, read-out: Cell Line IC50 C6 Glioma
# Description: as §1
# soft tissue (Kym-1) = experiment: Cell cytotoxicity assay (MTT), Kym-1; type: cell-based; details: Homo sapiens, read-out: Cell Line IC50 Kym-1
# Description: as §1
# lung (NCI-H460) = experiment: Cell cytotoxicity assay (MTT), NCI-H460; type: cell-based; details: Homo sapiens, read-out: Cell Line IC50 NCI-H460
# Description: as §1
Compound,IC50 (breast (MCF-7); read-out: Cell Line IC50 MCF-7) [µM],IC50 (lung (NCI-H23)) [µM],IC50 (prostate (PC3)) [µM],binding to ER-α (in words) [1],binding to ER-β (in words) [2],"IC50 (breast (MCF-7); Homo sapiens, MCF7, read-out: Cell Line IC50 MCF-7) [µM]",IC50 (glioma (C6)) [µM],IC50 (lung (NCI-H23); Homo sapiens) [µM],IC50 (soft tissue (Kym-1)) [µM],IC50 (prostate (PC3); Homo sapiens) [µM],"EC50 ([1]; read-out: concentration required to displace 50% of bound fluorescent estrogen ligand (EC50), ER-alpha) [µM]",IC50 (lung (NCI-H460)) [µM],"EC50 ([2]; read-out: concentration required to displace 50% of bound fluorescent estrogen ligand (EC50), ER-beta) [µM]"
"CC(=O)Oc1ccc(C2=Cc3cc(C4c5ccc(OC(C)=O)cc5OCC4c4ccc(OC(C)=O)cc4)c(OC(C)=O)cc3OC2)cc1 (stereo not shown) [Structure 2, Tetraacetoxy 6-(4-(isoflavan-4′,7-diol))-isoflav-3-ene-4′,7-diol]",10 ± 5,7.3,6,did not bind,did not bind,,,,,,,,
"Oc1ccc(C2=Cc3cc(C4c5ccc(O)cc5OCC4c4ccc(O)cc4)c(O)cc3OC2)cc1 (stereo not shown) [Structure 3, 6-(4-(Isoflavan-4′,7-diol))-isoflav-3-ene-4′,7-diol]",,,,,,18 ± 2,17.5,13.5,3.2,13.5,0.35 ± 0.05,14.4,0.37 ± 0.05
